Results taken from patent US9156860B2, “Boron-containing small molecules” (Anacor Pharmaceuticals, Inc., priority 2011, dated 2015).

How the values were obtained:
[1] = test system: Lone star tick larvae (Amblyomma americanum); assay: Larval immersion microassay against larval-stage Lone star ticks; details: Amblyomma americanum, 24 h, read-out: activity (percent larval mortality)
Procedure: The larval immersion microassay was conducted as described in detail in White, et al., J. Med. Entomol. […] Compounds of the invention were formulated in dimethylsulfoxide (DMSO) to prepare a stock solution at a concentration of at least 10 mM. […] Approximately 30-50 Lone star tick larvae (Amblyomma americanum) were submerged into each well containing compounds. After a 30 minute immersion period, larvae were removed with a wide-bore pipette tip in 0.05 ml of fluid, dispensed into a commercial paper tissue biopsy bag which was sealed at the top with a plastic dialysis clip, inverted and allowed to air dry for 60 minutes. Bags containing larvae were then incubated at approximately 27 degrees Celsius and >90% relative humidity. After 24 hours, bags were opened, live and dead larvae were counted and percent larval mortality was calculated.
7 contains one chiral center, and is therefore a racemic mixture comprised of approximately 50% R- and 50% S-enantiomer. In vitro and surrogate animal (rat) studies were conducted to evaluate the biological activity of the R- and S-enantiomers of 7. For the in vitro study, larvae of the Lone star tick (Amblyomma americanum) were exposed to 17 (S-enantiomer) and 18 (R-enantiomer) using the larval immersion microassay at a concentration of no greater than 0.3 mM. Following exposure, larvae were removed, transferred to a tissue biopsy bag and incubated at approximately 27 degrees Celsius and >90% relative humidity. After 24 hours, biopsy bags were opened and the numbers of live and dead larvae were determined.

[2] = test system: adult American dog tick (Dermacentor variabilis); assay: Example 6: efficacy against adult American dog tick infestations on dogs, 48 h and 72 h counts; type: in vivo; details: 50 mg/kg oral
Procedure: […] Twelve (12) male and female beagle dogs were allocated to three treatment groups: Untreated, negative control A; 7 group B; and 7 group C (n=4 dogs per group). Dogs were infested with approximately 50 unfed, adult D. variabilis ticks on Days −1, 5, 12, 19 and 28. For 7 group B dogs, tick counts and classification were conducted at 48 hour post-treatment or post-infestation intervals on Days 2, 7, 14, 21 and 30. For negative control group A and 7 group C dogs, tick counts and classification were conducted at 72 hour post-treatment or post-infestation intervals on Days 3, 8, 15, 22 and 31. On Day 0, dogs in groups B and C were orally administered gelatin capsules containing 7 (50% technical active, 47% microcrystalline cellulose and 3% croscarmellose sodium, w/w) at a point dose of 50 mg/kg. Both 48 hour and 72 hour counts in the treated groups were adjusted to counts from the same 72 hour negative control group. GM percent efficacy of treatments was calculated using the following formula:

SMILES: CC1(C)OB(O)c2ccc(C3=NOC(c4cc(Cl)c(Cl)c(Cl)c4)(C(F)(F)F)C3)cc21 (racemic) [Compound 7, 3,3-Dimethyl-5-(5-(3,4,5-trichlorophenyl)-5-(trifluoromethyl)-4,5-dihydroisoxazol-3-yl)benzo[c][1,2]oxaborol-1(3H)-ol]
- mortality at 300 µM [1]: ≥ 80%
- Geometric mean group live tick count ([2]; Week 0, 48 h count (Day 2)): 0.3
- Geometric mean group live tick count ([2]; Week 0, 72 h count (Day 3)): 0.0
- % efficacy ([2]; Week 1, 48 h count (Day 7)): (85.1) %
- Geometric mean group live tick count ([2]; Week 1, 48 h count (Day 7)): 2.6
- % efficacy ([2]; Week 1, 72 h count (Day 8)): (100) %
- Geometric mean group live tick count ([2]; Week 1, 72 h count (Day 8)): 0.0
- % efficacy ([2]; Week 2, 48 h count (Day 14)): (78.3) %
- Geometric mean group live tick count ([2]; Week 2, 48 h count (Day 14)): 6.1
- % efficacy ([2]; Week 2, 72 h count (Day 15)): (99.3) %
- Geometric mean group live tick count ([2]; Week 2, 72 h count (Day 15)): 0.2
- % efficacy ([2]; Week 3, 48 h count (Day 21)): (13.0) %
- Geometric mean group live tick count ([2]; Week 3, 48 h count (Day 21)): 10.7
- % efficacy ([2]; Week 3, 72 h count (Day 22)): (100) %
- Geometric mean group live tick count ([2]; Week 3, 72 h count (Day 22)): 0.0
- % efficacy ([2]; Week 4, 48 h count (Day 30)): (35.5) %
- Geometric mean group live tick count ([2]; Week 4, 48 h count (Day 30)): 16.3
- Geometric mean group live tick count ([2]; Week 4, 72 h count (Day 31)): 0.8
- Residual efficacy using 72 hour count intervals ([2]; through week 3 (Day 22)): > 99%
- Residual efficacy at 48 hour intervals ([2]; through week 4 (Day 30)): < 90%
